Assay results reported in patent publication US20150225369A1, “DDR2 INHIBITORS FOR THE TREATMENT OF OSTEOARTHRITIS” (Merck Patent GmbH, priority 2012, published 2015).

Target: T1, His-tagged human recombinant DDR-2 kinase domain (His-TEV-DDR2 467-855 aa) (Homo sapiens, UniProt Q16832)
T1 construct: His-TEV-DDR2 467-855 aa
T1 sequence (Q16832 467-855): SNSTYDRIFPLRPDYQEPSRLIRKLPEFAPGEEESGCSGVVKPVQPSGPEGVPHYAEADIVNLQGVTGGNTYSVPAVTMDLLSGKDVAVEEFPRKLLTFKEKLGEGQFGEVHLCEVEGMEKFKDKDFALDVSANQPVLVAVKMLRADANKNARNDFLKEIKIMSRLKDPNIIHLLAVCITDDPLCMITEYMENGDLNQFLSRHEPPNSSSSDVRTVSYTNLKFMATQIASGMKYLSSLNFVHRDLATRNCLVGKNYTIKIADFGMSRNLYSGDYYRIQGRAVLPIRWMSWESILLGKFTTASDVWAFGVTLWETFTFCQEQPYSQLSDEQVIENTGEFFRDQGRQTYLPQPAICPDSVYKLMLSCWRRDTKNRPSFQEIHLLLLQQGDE
Test: Autophosphorylation assay for biochemical activity testing of DDR2 (HTRF)
Conditions: biochemical DDR2 autophosphorylation
Summary of the method: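 Phospho-tyrosine was detected by HTRF between XL665 anti-6His and cryptate anti-phosphotyrosine PT66 antibodies, using the emission ratio. Inhibition was referenced to the inhibitor-free reaction.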

Row | IC50 | SMILES
1 | 100 nM | CNC(=O)c1cc(Oc2ccc(CNC(=O)Nc3cc(C(F)(F)F)c(Cl)cc3OC)cc2F)ccn1 [compound 231, 4-{4-[3-(4-Chloro-2-methoxy-5-trifluoromethyl-phenyl)-ureidomethyl]-2-fluoro-phenoxy}-pyridine-2-carboxylic acid methylamide]
2 | 440 nM | CNC(=O)c1cc(Oc2ccc(CNC(=O)Nc3cc(C(F)(F)F)c(Cl)cc3OCCN3C(=O)c4ccccc4C3=O)cc2)ccn1 [compound 242, 4-[4-(3-{4-Chloro-2-[2-(1,3-dioxo-1,3-dihydro-isoindol-2-yl)-ethoxy]-5-trifluoromethyl-phenyl}-ureidomethyl)-phenoxy]-pyridine-2-carboxylic acid methylamide]
3 | 620 nM | CNC(=O)c1cc(Oc2ccc(CNC(=O)Nc3cc(C)c(Cl)cc3OCCN(C)C(=O)OC(C)(C)C)cc2)ccn1 [compound 244, [2-(5-Chloro-4-methyl-2-{3-[4-(2-methylcarbamoyl-pyridin-4-yloxy)-benzyl]-ureido}-phenoxy)-ethyl]-methyl-carbamic acid tert-butyl ester]
4 | 9200 nM | O=C(NCc1ccc(Oc2ccncc2)cc1)Nc1ccccc1 [compound 245, 1-Phenyl-3-[4-(pyridin-4-yloxy)-benzyl]-urea]
5 | 230 nM | Cc1cc(NC(=O)NCc2ccc(Oc3ccncc3)c(C)c2)c(OCCN(C)C)cc1Cl [compound 246, 1-[4-Chloro-2-(2-dimethylamino-ethoxy)-5-methyl-phenyl]-3-[3-methyl-4-(pyridin-4-yloxy)-benzyl]-urea]
6 | 770 nM | COc1cc(Cl)c(C)cc1NC(=O)NCc1ccc(Oc2ccncc2)c(C)c1 [compound 248, 1-(4-Chloro-2-methoxy-5-methyl-phenyl)-3-[3-methyl-4-(pyridin-4-yloxy)-benzyl]-urea]
7 | 650 nM | Cc1cc2nccc(Oc3ccc(CNC(=O)Nc4ccccc4)cc3)c2o1 [compound 249, 1-[4-(2-Methyl-furo[3,2-b]pyridin-7-yloxy)-benzyl]-3-phenyl-urea]
8 | 1200 nM | Cc1cc(NC(=O)NCc2ccc(Oc3ccncn3)c(C)c2)c(OCCN(C)C)cc1Cl [compound 250, 1-[4-Chloro-2-(2-dimethylamino-ethoxy)-5-methyl-phenyl]-3-[3-methyl-4-(pyrimidin-4-yloxy)-benzyl]-urea]
9 | 440 nM | Cc1cc(NC(=O)NCc2ccc(Oc3cc(N)ncn3)c(C)c2)c(OCCN(C)C)cc1Cl [compound 251, 1-[4-(6-Amino-pyrimidin-4-yloxy)-3-methyl-benzyl]-3-[4-chloro-2-(2-dimethylamino-ethoxy)-5-methyl-phenyl]-urea]
10 | 750 nM | COc1cc(Cl)c(C)cc1NC(=O)NCc1ccc(Oc2ccnc3cc(C)oc23)c(C)c1 [compound 252, 1-(4-Chloro-2-methoxy-5-methyl-phenyl)-3-[3-methyl-4-(2-methyl-furo[3,2-b]pyridin-7-yloxy)-benzyl]-urea]
11 | 70 nM | Cc1cc2nccc(Oc3ccc(CNC(=O)Nc4cc(C)c(Cl)cc4OCCN(C)C)cc3C)c2o1 [compound 253, 1-[4-Chloro-2-(2-dimethylamino-ethoxy)-5-methyl-phenyl]-3-[3-methyl-4-(2-methyl-furo[3,2-b]pyridin-7-yloxy)-benzyl]-urea]
12 | 31 nM | Cc1cc(NC(=O)NCc2ccc(Oc3ccnc(N)c3)c(C)c2)c(OCCN(C)C)cc1Cl [compound 254, 1-[4-(2-Amino-pyridin-4-yloxy)-3-methyl-benzyl]-3-[4-chloro-2-(2-dimethylamino-ethoxy)-5-methyl-phenyl]-urea]

Row | SMILES | IC50
13 | CC(=O)Nc1cc(Oc2ccc(CNC(=O)Nc3cc(C)c(Cl)cc3OCCN(C)C)cc2C)ccn1 [compound 247, N-[4-(4-{3-[4-Chloro-2-(2-dimethylamino-ethoxy)-5-methyl-phenyl]-ureidomethyl}-2-methyl-phenoxy)-pyridin-2-yl]-acetamide] | 6 nM

Target: T2, HEK293 transfected with human DDR2 (Homo sapiens, UniProt Q16832)
T2 construct: expressed in transfected cells; host or cells: HEK293 (PLT460F_(DDR2)-P7-1)
T2 sequence (Q16832 22-855): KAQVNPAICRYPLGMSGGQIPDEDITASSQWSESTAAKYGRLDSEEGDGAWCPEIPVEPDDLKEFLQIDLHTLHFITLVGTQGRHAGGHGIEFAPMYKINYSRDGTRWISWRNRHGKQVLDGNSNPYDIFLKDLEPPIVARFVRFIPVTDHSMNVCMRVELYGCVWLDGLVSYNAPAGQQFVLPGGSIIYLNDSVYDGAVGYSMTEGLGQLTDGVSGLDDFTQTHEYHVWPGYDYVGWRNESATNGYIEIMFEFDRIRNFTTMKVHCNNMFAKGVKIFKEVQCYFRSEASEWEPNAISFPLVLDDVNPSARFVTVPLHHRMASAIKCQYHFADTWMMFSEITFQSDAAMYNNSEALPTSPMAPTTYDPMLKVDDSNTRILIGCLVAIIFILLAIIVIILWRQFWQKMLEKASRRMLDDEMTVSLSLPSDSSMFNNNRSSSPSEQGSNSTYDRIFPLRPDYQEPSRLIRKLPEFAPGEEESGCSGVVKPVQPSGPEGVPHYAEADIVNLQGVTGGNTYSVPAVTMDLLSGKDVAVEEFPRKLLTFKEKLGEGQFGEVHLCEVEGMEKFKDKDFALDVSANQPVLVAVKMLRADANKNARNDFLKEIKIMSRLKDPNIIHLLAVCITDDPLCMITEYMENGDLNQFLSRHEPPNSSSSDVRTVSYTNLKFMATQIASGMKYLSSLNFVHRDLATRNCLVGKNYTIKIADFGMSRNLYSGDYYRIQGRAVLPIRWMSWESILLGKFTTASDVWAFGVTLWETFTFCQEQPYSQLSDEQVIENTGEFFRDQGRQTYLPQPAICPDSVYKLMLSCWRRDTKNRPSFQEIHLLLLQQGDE
Test: Phospho-DDR2 cellular assay (collagen II induced DDR2 phosphorylation, ELISA)
Type: cell-based
Conditions: HEK293 transfected with human DDR2, 50 μg/ml chicken collagen II, 16 h; read-out: IC50 [p-DDR2]
Method: Assays were performed in a 384 well plate format, using cell line HEK293 transfected with human DDR2 (PLT460F_(DDR2)-P7-1)
Cells were seeded at a density of 10'000 cells/well in 384well poly-D-lysine coated Black/clear plate (Cellcoat Greiner) and incubated in DMEM medium in the presence of 10% fetal bovine serum at 37° C., 5% CO2 for 48 h. Medium was replaced by serum-free medium and cells were incubated at 37° C., 5% CO2 for 8 h. Compound to be tested in 5% DMSO or 5% DMSO and 50 μg/ml of chicken collagen II were added and cells were incubated at 37° C., 5% CO2 for 16 h
Cells were rinsed with ice-cold PBS, lysed with lysis buffer (M-PER Thermo #78501) for 30 min at room temperature and centrifuged for 1 min at 1000 RPM. In parallel, White High binding 384 well plates (Corning) were coated with mouse anti-human DDR2 capture antibody (R&D Systems kit DuoSet IC Human phospho-DDR2 ELISA), overnight at RT.
An aliquot of cell lysate was transferred to the coated plates and incubated for 2 h at RT. Plates were washed and mouse anti-phospho-tyrosine detection antibody (R&D Systems kit DuoSet IC Human phospho-DDR2 ELISA) conjugated to horse radish peroxidase (HRP) was added for 2 h at RT. Plates were washed and chemiluminescent substrate for HRP (Thermo) was added for 15 min at RT. Luminescence was measured on a luminometer.

Row | IC50 | SMILES
14 | 5.9 nM | Cn1cc(C(F)(F)F)cc(NC(=O)NCc2ccc(Oc3ccnc4c3CNC(=O)N4)cc2)c1=O [compound 5]

Same assay, conditions: cellular phospho-DDR2; read-out: IC50 [p-DDR2]

Row | IC50 | SMILES
15 | 195 nM | CNC(=O)c1cc(Oc2ccc(CNC(=O)Nc3ccc(Cl)c(Cl)c3)cc2)ccn1 [compound 3]
16 | 255 nM | CNC(=O)c1cc(Oc2ccc(CNC(=O)Nc3ccc(Cl)cc3Cl)cc2)ccn1 [compound 8]
17 | 775 nM | CNC(=O)c1cc(Oc2ccc(CNC(=O)Nc3ccc(F)cc3)cc2)ccn1 [compound 12]
18 | 100 nM | CNC(=O)c1cc(Oc2ccc(CNC(=O)Nc3cc(Cl)c(Cl)cc3Cl)cc2)ccn1 [compound 23]
19 | 175 nM | CNC(=O)c1cc(Oc2ccc(CNC(=O)Nc3cc(Cl)cc(Cl)c3)cc2)ccn1 [compound 31]
20 | 64 nM | CNC(=O)c1cc(Oc2ccc(CNC(=O)Nc3ccc(OC)c(Cl)c3)cc2)ccn1 [compound 39, 4-{4-[3-(3-Chloro-4-methoxy-phenyl)-ureidomethyl]-phenoxy}-pyridine-2-carboxylic acid methylamide]
21 | 230 nM | CNC(=O)c1cc(Oc2ccc(CNC(=O)Nc3cc(Cl)ccc3C)cc2)ccn1 [compound 42, 4-{4-[3-(5-Chloro-2-methyl-phenyl)-ureidomethyl]-phenoxy}-pyridine-2-carboxylic acid methylamide]
22 | 175 nM | CNC(=O)c1cc(Oc2ccc(CNC(=O)Nc3ccc(Cl)c(C)c3)cc2)ccn1 [compound 74, 4-{4-[3-(4-Chloro-3-methyl-phenyl)-ureidomethyl]-phenoxy}-pyridine-2-carboxylic acid methylamide]
23 | 670 nM | CNC(=O)c1cc(Oc2ccc(CNC(=O)Nc3ccc4nsnc4c3)cc2)ccn1 [compound 76, 4-{4-[(3-Benzo[1,2,5]thiadiazol-5-yl-ureido)-methyl]-phenoxy}-pyridine-2-carboxylic acid methylamide]

More lines, now with the values behind:

Row | SMILES | IC50
24 | CNC(=O)c1cc(Oc2ccc(C(C)NC(=O)Nc3cc(Cl)c(Cl)cc3Cl)cc2)ccn1 (stereo not drawn) [compound 70, 4-(4-{1-[3-(2,4,5-Trichloro-phenyl)-ureido]-ethyl}-phenoxy)-pyridine-2-carboxylic acid methylamide] | 735 nM
25 | CNC(=O)c1cc(Oc2ccc(C(C)NC(=O)Nc3ccc(Cl)c(Cl)c3)cc2)ccn1 (stereo not drawn) [compound 71, 4-(4-{1-[3-(3,4-Dichloro-phenyl)-ureido]-ethyl}-phenoxy)-pyridine-2-carboxylic acid methylamide] | 1800 nM
26 | CNC(=O)c1cc(Oc2ccc(C(C)NC(=O)Nc3ccc(C)c(Cl)c3)cc2)ccn1 (stereo not drawn) [compound 73, 4-(4-{1-[3-(3-Chloro-4-methyl-phenyl)-ureido]-ethyl}-phenoxy)-pyridine-2-carboxylic acid methylamide] | 1750 nM
27 | CNC(=O)c1cc(Oc2ccc(CNC(=O)Nc3cc(OC)c(OC)c(OC)c3)cc2)ccn1 [compound 80, 4-{4-[3-(3,4,5-Trimethoxy-phenyl)-ureidomethyl]-phenoxy}-pyridine-2-carboxylic acid methylamide] | 750 nM
